Assay results from US11331341B2, “Combination therapies that enhance antimicrobial/anticancer activities” (International Business Machines Corporation, priority 2020, dated 2022).
Values after ≈ are worked out from the molar mass of the structure shown. Where two headings read alike, the source gives them in different places.

Experiments:
[1] = test system: MCR-1-positive E. coli strains; test: Checkerboard assay / MIC, MCR-1-positive colistin-resistant E. coli; format: cell-based; details: for MIC against MCR-1-positive E. coli: alone
Excerpt: Repetitive description of like elements employed in other embodiments described herein is omitted for sake of brevity.
Plasmid-mediated colistin-resistance has been reported in Gram-negative bacteria, which resulted from a MCR-1 enzyme that catalyzes the transfer of phosphoethanolamine to lipid A; thereby rendering the membrane more electropositive.

[2] = test system: therapeutic-susceptible MCF7 cancer cells; test: Cytotoxicity against therapeutic-susceptible MCF7; format: cell-based; details: Homo sapiens
Method: (§1) Further, Table 2 regards anticancer activity against therapeutic-susceptible MCF7 cancer cells with an incubation time of 48 hours. For the combination therapies, the cancer cells were treated with the antimicrobial polymer for 4 hours followed by treatment with doxorubicin for 44 hours. Also, Table 3 regards anticancer activity against therapeutic-resistant MCF7 cancer cells with an incubation time of 48 hours. For the combination therapies, the cancer cells were treated with the antimicrobial polymer for 4 hours followed by treatment with doxorubicin for 44 hours.

[3] = test system: therapeutic-resistant MCF7/ADR cell line; test: Cytotoxicity against therapeutic-resistant MCF7/ADR; format: cell-based; details: Homo sapiens
Method: as §1

[4] = test system: therapeutic-resistant SK-OV-3-TR cell line; test: Cytotoxicity against SK-OV-3-TR; format: cell-based; details: SKOV3TR; FIG. 25; read-out: absolute IC50 in treating SK-OV-3-TR
Excerpt: Cytotoxicity graph 2500 regards treating SK-OV-3-TR solely with paclitaxel. […] Cytotoxicity graph 2502 regards treating SK-OV-3-TR solely with the example quaternary ammonium functionalized antimicrobial polymer 1402 (e.g., wherein “n” equals 21). […] Cytotoxicity graph 2504 regards treating SK-OV-3-TR solely with the example guanidinium functionalized antimicrobial polymer 1404 (e.g., wherein “m” equals 20). […] Cytotoxicity graph 2506 regards treating SK-OV-3-TR with a combination therapy of paclitaxel with 0.5 IC50 of the example quaternary ammonium functionalized antimicrobial polymer 1402 (e.g., wherein “n” equals 21). […] Cytotoxicity graph 2508 regards treating SK-OV-3-TR with a combination therapy of paclitaxel with 0.5 IC50 of example guanidinium functionalized antimicrobial polymer 1404 (e.g., wherein “m” equals 20).

BT474 cell line = test: cells; details: Homo sapiens, BT-474, read-out: absolute IC50 in treating BT474
Excerpt: Cytotoxicity graph 2100 regards treating BT474 solely with doxorubicin.

[5] = MCF7, FIG. 22 and FIG. 24, read-out: absolute IC50 in treating MCF7
[6] = NCI/ADR-RES, FIG. 23 and FIG. 24, read-out: absolute IC50 in treating MCF7/ADR

Compound: colistimethate sodium
- MIC against MCR-1-positive E. coli ([1]; first of two MCR-1-positive E. coli strains): 15.6 µg/mL
- MIC against MCR-1-positive E. coli ([1]; second of two MCR-1-positive E. coli strains): 31.3 µg/mL

Compound: CC(=O)O[C@H]1C(=O)[C@@]2(C)[C@H]([C@H](OC(=O)c3ccccc3)[C@]3(O)C[C@H](OC(=O)[C@H](O)[C@@H](NC(=O)c4ccccc4)c4ccccc4)C(C)=C1C3(C)C)[C@]1(OC(C)=O)CO[C@@H]1C[C@@H]2O [paclitaxel]
- IC50 [2, 5]: 19.7 µg/mL
- IC50 [3, 6]: 5150 µg/mL
- IC50 [4]: 27.4 µg/mL (≈ 32.1 µM)

Compound: COc1cccc2c1C(=O)c1c(O)c3c(c(O)c1C2=O)C[C@@](O)(C(=O)CO)C[C@@H]3O[C@H]1C[C@H](N)[C@H](O)[C@H](C)O1 [DOX, doxorubicin]
- IC50 [2, 5]: 0.15 µg/mL
- IC50 ([2]; MCF7, incubation 48 hours, combinations: polymer for 4 hours followed by doxorubicin for 44 hours, read-out: Absolute IC50): 0.054 µg/mL
- IC50 [3, 6]: 139 µg/mL
- IC50 ([3]; therapeutic-resistant MCF7, incubation 48 hours, combinations: polymer for 4 hours followed by doxorubicin for 44 hours, read-out: Absolute IC50): 375 µg/mL
- IC50 (BT474 cell line): 8.42 µg/mL (≈ 15.5 µM)

Compound: colistin
- colistin MIC against MCR-1 colistin-resistant bacteria ([1]; with pQuat_20 at ½×MIC): < 0.49 µg/mL
